# What was measured:
# JAK2 = JAK2 (Homo sapiens (Human), UniProt O60674); assay: JAK2 enzyme activity assay (Thermo Fisher SelectScreen, Z-lyte); type: biochemical; conditions: read-out: JAK2 Inhibition IC50
# How it was run: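 IC50 values derive from a 4-parameter logistic fit of emission ratio across an 11-point series ([…] to 0.34 nM, 2% DMSO vehicle). Reaction: 1 h, 0.12-0.5 ng JAK2, […] Tyr 06 in HEPES pH 7.5 buffer with MgCl2, EGTA, BRIJ-35, read by Z-lyte development.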
# [1] = tested on: IFNγ stimulated STAT1 phosphorylation on Tyr701 (JAK1/2); assay: JAK1/2 cellular target modulation: IFNγ stimulated phospho-STAT1 in PBMC; type: cell-based; conditions: human PBMC, IFNγ 10 ng/ml; read-out: Infγ-STAT1 IC50
# How it was run: (§1)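 Thawed human PBMC (200,000/well, RPMI/10% FBS) were preincubated with compound for 1 h at 37 °C, added from 10× stocks in 1% DMSO. Stimulation and read-out: IL-2 25 ng/ml, 5 min, pSTAT5 by MSD; IL-12 1.7 ng/ml, 25 min, pSTAT4 by MSD; IFNγ 10 ng/ml, 10 min, pSTAT1 by sandwich ELISA.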
# [2] = tested on: IL-2 stimulated STAT5 phosphorylation on Tyr694 (JAK1/3); assay: JAK1/3 cellular target modulation: IL-2 stimulated phospho-STAT5 in PBMC; type: cell-based; conditions: human PBMC, IL-2 25 ng/ml; read-out: IL2-STAT5 IC50
# How it was run: as §1
# JAK1 = JAK1 (Homo sapiens (Human), UniProt P23458); assay: JAK1 enzyme activity assay (Thermo Fisher SelectScreen, Z-lyte); type: biochemical; conditions: read-out: JAK1 Inhibition IC50
# Chain of JAK1 (P23458 whole entry): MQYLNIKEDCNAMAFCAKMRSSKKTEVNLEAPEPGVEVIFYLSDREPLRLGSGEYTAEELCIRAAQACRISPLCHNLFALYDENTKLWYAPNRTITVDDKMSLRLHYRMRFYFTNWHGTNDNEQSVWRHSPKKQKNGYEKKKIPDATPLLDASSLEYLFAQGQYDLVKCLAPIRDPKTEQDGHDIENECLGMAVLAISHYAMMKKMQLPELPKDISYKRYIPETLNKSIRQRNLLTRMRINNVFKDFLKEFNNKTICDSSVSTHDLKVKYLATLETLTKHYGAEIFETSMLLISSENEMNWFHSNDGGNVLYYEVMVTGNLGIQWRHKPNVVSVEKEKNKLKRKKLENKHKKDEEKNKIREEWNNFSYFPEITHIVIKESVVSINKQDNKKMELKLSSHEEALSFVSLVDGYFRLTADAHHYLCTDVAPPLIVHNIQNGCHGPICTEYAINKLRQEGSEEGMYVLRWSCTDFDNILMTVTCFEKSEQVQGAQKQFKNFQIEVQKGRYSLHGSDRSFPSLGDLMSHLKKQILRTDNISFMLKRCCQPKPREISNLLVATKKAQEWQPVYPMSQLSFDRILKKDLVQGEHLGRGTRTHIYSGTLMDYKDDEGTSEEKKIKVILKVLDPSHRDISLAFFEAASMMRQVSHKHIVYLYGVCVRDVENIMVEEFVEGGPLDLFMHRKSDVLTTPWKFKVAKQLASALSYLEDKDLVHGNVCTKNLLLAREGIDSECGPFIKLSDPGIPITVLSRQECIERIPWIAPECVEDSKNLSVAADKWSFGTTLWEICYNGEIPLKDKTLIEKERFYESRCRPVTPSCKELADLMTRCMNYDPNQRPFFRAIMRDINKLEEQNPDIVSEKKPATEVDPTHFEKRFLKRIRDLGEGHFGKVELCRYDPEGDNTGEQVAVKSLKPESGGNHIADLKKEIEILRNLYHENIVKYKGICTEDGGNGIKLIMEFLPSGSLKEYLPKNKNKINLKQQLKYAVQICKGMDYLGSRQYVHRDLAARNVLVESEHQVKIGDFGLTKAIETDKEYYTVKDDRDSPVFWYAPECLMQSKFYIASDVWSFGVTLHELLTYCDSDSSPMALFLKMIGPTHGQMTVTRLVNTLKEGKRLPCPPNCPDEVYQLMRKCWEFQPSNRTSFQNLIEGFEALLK
# How it was run: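 Z-lyte assay with 21.2-91.5 ng JAK and […] Tyr 06 in 50 mM HEPES pH 7.0, 10 mM MgCl2, 1 mM EGTA, 0.01% BRIJ-35; 1 h kinase reaction, then development reagent. 11-point dose-response from […] to 0.34 nM, 2% DMSO vehicle; IC50 from 4-parameter logistic fit of emission ratio.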
# Tyk-2 = Tyk-2 (Homo sapiens (Human), UniProt P29597); assay: Tyk-2 enzyme activity assay (Thermo Fisher SelectScreen, Z-lyte); type: biochemical; conditions: read-out: Tyk-2 Inhibition IC50
# Chain of Tyk-2 (P29597 whole entry): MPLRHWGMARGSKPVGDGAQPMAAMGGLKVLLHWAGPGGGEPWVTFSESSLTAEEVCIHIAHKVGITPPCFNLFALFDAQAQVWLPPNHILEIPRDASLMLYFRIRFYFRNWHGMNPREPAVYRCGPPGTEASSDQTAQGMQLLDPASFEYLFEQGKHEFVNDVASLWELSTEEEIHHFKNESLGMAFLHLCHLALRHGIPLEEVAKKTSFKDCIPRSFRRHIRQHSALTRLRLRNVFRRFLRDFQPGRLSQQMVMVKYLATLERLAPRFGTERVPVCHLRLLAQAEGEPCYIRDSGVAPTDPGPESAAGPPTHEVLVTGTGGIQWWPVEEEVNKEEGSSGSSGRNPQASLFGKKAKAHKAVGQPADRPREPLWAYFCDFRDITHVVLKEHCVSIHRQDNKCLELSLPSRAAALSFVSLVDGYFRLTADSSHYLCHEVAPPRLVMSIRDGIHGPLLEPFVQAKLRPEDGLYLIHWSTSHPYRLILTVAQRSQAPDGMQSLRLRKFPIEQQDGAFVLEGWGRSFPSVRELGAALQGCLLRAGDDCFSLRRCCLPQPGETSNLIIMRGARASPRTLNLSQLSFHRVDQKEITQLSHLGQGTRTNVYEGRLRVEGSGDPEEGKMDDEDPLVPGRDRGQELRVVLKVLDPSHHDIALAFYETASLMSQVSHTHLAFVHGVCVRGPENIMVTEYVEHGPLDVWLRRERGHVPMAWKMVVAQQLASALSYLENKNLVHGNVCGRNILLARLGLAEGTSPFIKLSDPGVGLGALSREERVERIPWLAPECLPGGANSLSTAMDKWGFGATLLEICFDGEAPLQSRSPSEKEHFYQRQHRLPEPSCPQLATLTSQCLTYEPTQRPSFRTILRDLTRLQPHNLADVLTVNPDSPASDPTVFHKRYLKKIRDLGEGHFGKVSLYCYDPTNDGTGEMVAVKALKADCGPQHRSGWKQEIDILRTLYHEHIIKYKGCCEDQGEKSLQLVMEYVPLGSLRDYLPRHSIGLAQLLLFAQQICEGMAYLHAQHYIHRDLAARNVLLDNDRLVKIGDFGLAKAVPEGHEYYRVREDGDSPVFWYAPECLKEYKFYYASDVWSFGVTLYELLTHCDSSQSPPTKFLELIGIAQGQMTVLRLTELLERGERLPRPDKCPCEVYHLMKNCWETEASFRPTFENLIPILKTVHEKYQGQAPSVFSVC
# How it was run: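 Z-lyte FRET assay: 3.75–15 ng TYK2 with […] Tyr 03 peptide in HEPES pH 7.0, MgCl2, EGTA, BRIJ-35; 1 h reaction, then development reagent. 11-point dose-response, 2% DMSO; IC50 via 4-parameter fit of emission ratio, background without enzyme.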
# JAK3 (a.a. 781-1124) = JAK3 (a.a. 781-1124) (Homo sapiens (Human), UniProt P52333); assay: JAK3 enzyme activity assay (SRCtide phosphorylation, Caliper); type: biochemical; conditions: 1 uM ATP; read-out: JAK3 Inhibition IC50
# Chain of JAK3 (a.a. 781-1124) (P52333 781-1124): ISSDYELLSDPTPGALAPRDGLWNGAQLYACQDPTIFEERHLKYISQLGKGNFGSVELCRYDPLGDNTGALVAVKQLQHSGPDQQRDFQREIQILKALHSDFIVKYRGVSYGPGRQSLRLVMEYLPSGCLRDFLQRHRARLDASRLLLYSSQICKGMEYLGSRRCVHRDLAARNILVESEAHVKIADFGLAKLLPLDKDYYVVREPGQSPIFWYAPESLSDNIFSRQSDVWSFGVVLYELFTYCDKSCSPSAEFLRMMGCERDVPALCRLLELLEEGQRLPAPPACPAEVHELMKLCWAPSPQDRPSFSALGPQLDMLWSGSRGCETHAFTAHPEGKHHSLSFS
# [3] = tested on: IL-12 stimulated STAT4 phosphorylation on Tyr693 (JAK2/TYK2); assay: JAK2/TYK2 cellular target modulation: IL-12 stimulated phospho-STAT4 in PBMC; type: cell-based; conditions: human PBMC, IL-12 1.7 ng/ml; read-out: IL12-STAT4 IC50
# Source text: JAK Cellular Target Modulation Assays
# Target modulation was based upon the ability of a compound to inhibit JAK isoform specific phosphorylation of selected substrates. IL-2 stimulated STAT5 phosphorylation on Tyr694 was used to assess JAK1/3 compound selectivity. GM-CSF stimulated STAT5 phosphorylation on Tyr694 was used to assess JAK2 compound selectivity. IFNγ stimulated STAT1 phosphorylation on Tyr701 was used to assess JAK1/2 compound selectivity. IL-12 stimulated STAT4 phosphorylation on Tyr693 was used to assess JAK2/TYK2 compound selectivity. For all four assays, human PBMC from frozen stocks were thawed, pelleted, resuspended in complete media (90% RPMI, 10% heat inactivated FBS, 10 mM HEPES, 47 μM 2-ME, pen/strep) and placed in wells of a 96 well V-bottom plate at 200,000 per well in 120 μl complete media. Compounds were added as 15 μl per well of 10× working stock solutions in complete media with 1% DMSO (or medium with 1% DMSO for controls) and placed on a plate shaker in a 37° C. incubator with 5% CO2 for 1 hour with gentle shaking (setting of 3). Stimulation used the addition of soluble cytokines. For the JAK1/3 phospho-STAT5 assay, 15 μl of 10× working stock recombinant human IL-2 was added to a final concentration of 25 ng/ml. For the JAK2 phospho-STAT5 assay, 15 μl of 10× working stock recombinant human GM-CSF was added to a final concentration of 5 ng/ml. For the JAK1/2 phospho-STAT1 assay, 15 μl of 10× working stock of recombinant human IFNγ was added to a final concentration of 10 ng/ml. For the JAK2/TYK2 phospho-STAT4 assay, 15 μl of 10× working stock of recombinant human IL-12 was added to a final concentration of 1.7 ng/ml. Plates were then placed back on the plate shaker in the incubator for an additional 5, 5, 10, and 25 minutes respectively upon which the plates were removed from the incubator, sealed with a plate sealer and the cells pelleted at 400×g for 5 minutes. After pelleting, the media was removed by aspiration and the cells were lysed in assay specific cell lysis buffer. The levels of phospho-STATS were determined using a Phospho (Tyr694) STAT5a,b Whole Cell Lysate kit from Meso Scale Discovery. Levels of phospho-STAT1 were determined using a CST-PathScan Phospho-STAT1 (Tyr701) Sandwich ELISA kit. Levels of phospho-STAT4 were determined using a Phospho-STAT4 (Tyr693) Whole Cell Lysate kit from Meso Scale Discovery.
# Chain of JAK2 (O60674 whole entry): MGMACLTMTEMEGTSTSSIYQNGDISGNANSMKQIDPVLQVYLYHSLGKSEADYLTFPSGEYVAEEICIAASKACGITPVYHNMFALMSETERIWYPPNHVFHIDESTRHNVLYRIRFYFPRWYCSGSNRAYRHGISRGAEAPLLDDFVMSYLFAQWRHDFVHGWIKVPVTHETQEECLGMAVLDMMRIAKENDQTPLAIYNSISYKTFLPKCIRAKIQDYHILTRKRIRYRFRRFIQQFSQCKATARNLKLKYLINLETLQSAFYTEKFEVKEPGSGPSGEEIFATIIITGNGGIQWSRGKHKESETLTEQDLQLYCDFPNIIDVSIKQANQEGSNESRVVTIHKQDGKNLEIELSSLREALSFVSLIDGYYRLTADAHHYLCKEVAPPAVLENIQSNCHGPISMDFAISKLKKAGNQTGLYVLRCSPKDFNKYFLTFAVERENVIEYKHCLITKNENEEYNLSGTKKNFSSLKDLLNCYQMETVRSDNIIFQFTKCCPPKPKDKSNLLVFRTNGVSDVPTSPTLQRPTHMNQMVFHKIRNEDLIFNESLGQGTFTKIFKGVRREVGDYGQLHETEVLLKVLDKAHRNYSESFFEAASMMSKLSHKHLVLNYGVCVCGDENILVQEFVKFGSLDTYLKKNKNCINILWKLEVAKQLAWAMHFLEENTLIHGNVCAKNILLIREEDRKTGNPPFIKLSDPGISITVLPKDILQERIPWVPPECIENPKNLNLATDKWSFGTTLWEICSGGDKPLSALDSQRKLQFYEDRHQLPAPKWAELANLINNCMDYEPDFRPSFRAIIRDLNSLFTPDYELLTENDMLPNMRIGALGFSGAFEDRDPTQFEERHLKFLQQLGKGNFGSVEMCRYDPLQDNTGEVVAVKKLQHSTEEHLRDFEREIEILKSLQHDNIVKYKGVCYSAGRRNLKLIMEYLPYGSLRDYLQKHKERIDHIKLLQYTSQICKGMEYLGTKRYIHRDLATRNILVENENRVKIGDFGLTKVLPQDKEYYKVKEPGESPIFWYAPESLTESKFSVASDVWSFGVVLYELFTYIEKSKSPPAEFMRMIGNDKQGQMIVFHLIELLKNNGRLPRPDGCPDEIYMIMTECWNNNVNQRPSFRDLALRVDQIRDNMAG
Structure (SMILES),IC50 (JAK2),IC50 [1],IC50 [2],IC50 (JAK1),IC50 (Tyk-2),IC50 (JAK3 (a.a. 781-1124)),IC50 [3]
"Cc1ccnc(-c2cnc3[nH]ccc3c2N[C@@H]2CCCN(C(=O)CC#N)C2)c1 [Example 15, (R)-3-(3-((5-(4-methylpyridin-2-yl)-1H-pyrrolo[2,3-b]pyridin-4-yl)amino)piperidin-1-yl)-3-oxopropanenitrile]",10 to 100 nM,100 to 1000 nM,≤ 100 nM,≤ 10 nM,10 to 100 nM,≤ 10 nM,> 1000 nM
"CS(=O)(=O)c1cnc(-c2cnc3[nH]ccc3c2N[C@@H]2CCCN(C(=O)CC#N)C2)o1 [Example 48, (R)-3-(3-((5-(5-(methylsulfonyl)oxazol-2-yl)-1H-pyrrolo[2,3-b]pyridin-4-yl)amino)piperidin-1-yl)-3-oxopropanenitrile]",10 to 100 nM,100 to 1000 nM,≤ 100 nM,≤ 10 nM,10 to 100 nM,10 to 100 nM,> 1000 nM
"N#CCCN1CCC[C@@H](Nc2c(-c3ncco3)cnc3[nH]ccc23)C1 [Example 27, (R)-3-(3-((5-(oxazol-2-yl)-1H-pyrrolo[2,3-b]pyridin-4-yl)amino)piperidin-1-yl)propanenitrile]",10 to 100 nM,> 1000 nM,100 to 1000 nM,10 to 100 nM,100 to 1000 nM,≤ 10 nM,> 1000 nM
"CS(=O)(=O)c1ccc(-c2cnc3[nH]ccc3c2N[C@@H]2CCCN(C(=O)CC#N)C2)nc1 [Example 55, (R)-3-(3-((5-(5-(methylsulfonyl)pyridin-2-yl)-1H-pyrrolo[2,3-b]pyridin-4-yl)amino)piperidin-1-yl)-3-oxopropanenitrile]",10 to 100 nM,100 to 1000 nM,≤ 100 nM,≤ 10 nM,≤ 10 nM,≤ 10 nM,> 1000 nM
"N#CCC(=O)N1CCC[C@@H](Nc2c(-c3ccn[nH]3)cnc3[nH]ccc23)C1 [Example 18, (R)-3-(3-((5-(1H-pyrazol-5-yl)-1H-pyrrolo[2,3-b]pyridin-4-yl)amino)piperidin-1-yl)-3-oxopropanenitrile]",10 to 100 nM,100 to 1000 nM,≤ 100 nM,≤ 10 nM,10 to 100 nM,≤ 10 nM,> 1000 nM
"O[C@H]1CC[C@@H](Nc2c(-c3ncco3)cnc3[nH]ccc23)C1 [Example 13, (1S,3R)-3-((5-(oxazol-2-yl)-1H-pyrrolo[2,3-b]pyridin-4-yl)amino)cyclopentan-1-ol]",10 to 100 nM,> 1000 nM,100 to 1000 nM,10 to 100 nM,100 to 1000 nM,10 to 100 nM,> 1000 nM
"N#CCC(=O)N1CCC[C@@H](Nc2c(-c3cccc(N)n3)cnc3[nH]ccc23)C1 [Example 44, (R)-3-(3-((5-(6-aminopyridin-2-yl)-1H-pyrrolo[2,3-b]pyridin-4-yl)amino)piperidin-1-yl)-3-oxopropanenitrile]",10 to 100 nM,100 to 1000 nM,100 to 1000 nM,≤ 10 nM,10 to 100 nM,10 to 100 nM,> 1000 nM

# More lines, now with the values ahead:
IC50 (JAK2),IC50 [1],IC50 [2],IC50 (JAK1),IC50 (Tyk-2),IC50 (JAK3 (a.a. 781-1124)),IC50 [3],Structure (SMILES)
10 to 100 nM,100 to 1000 nM,≤ 100 nM,≤ 10 nM,10 to 100 nM,≤ 10 nM,> 1000 nM,"Cc1noc(-c2cnc3[nH]ccc3c2N[C@@H]2CCCN(C(=O)CC#N)C2)n1 [Example 6, (R)-3-(3-((5-(3-methyl-1,2,4-oxadiazol-5-yl)-1H-pyrrolo[2,3-b]pyridin-4-yl)amino)piperidin-1-yl)-3-oxopropanenitrile]"
≤ 10 nM,≤ 100 nM,≤ 100 nM,≤ 10 nM,≤ 10 nM,≤ 10 nM,100 to 1000 nM,"Cc1cnc(-c2cnc3[nH]ccc3c2N[C@@H]2CCCN(C(=O)CC#N)C2)o1 [Example 36, (R)-3-(3-((5-(5-methyloxazol-2-yl)-1H-pyrrolo[2,3-b]pyridin-4-yl)amino)piperidin-1-yl)-3-oxopropanenitrile]"
10 to 100 nM,100 to 1000 nM,≤ 100 nM,≤ 10 nM,10 to 100 nM,10 to 100 nM,100 to 1000 nM,"N#CCC(=O)N1CCC[C@@H](Nc2c(-c3ccccn3)cnc3[nH]ccc23)C1 [Example 21, (R)-3-oxo-3-(3-((5-(pyridin-2-yl)-1H-pyrrolo[2,3-b]pyridin-4-yl)amino)piperidin-1-yl)propanenitrile]"
≤ 10 nM,≤ 100 nM,≤ 100 nM,≤ 10 nM,≤ 10 nM,≤ 10 nM,100 to 1000 nM,"N#CCC(=O)N1CCC[C@@H](Nc2c(-c3ncco3)cnc3[nH]ccc23)C1 [Example 5, (R)-3-(3-((5-(oxazol-2-yl)-1H-pyrrolo[2,3-b]pyridin-4-yl)amino)piperidin-1-yl)-3-oxopropanenitrile]"
≤ 10 nM,≤ 100 nM,≤ 100 nM,≤ 10 nM,≤ 10 nM,≤ 10 nM,≤ 100 nM,"C[C@H]1C[C@@H](Nc2c(-c3ncc(S(C)(=O)=O)s3)cnc3[nH]ccc23)CN(C(=O)CC#N)C1 [Example 65, 3-((3S,5R)-3-methyl-5-((5-(5-(methylsulfonyl)thiazol-2-yl)-1H-pyrrolo[2,3-b]pyridin-4-yl)amino)piperidin-1-yl)-3-oxopropanenitrile]"
≤ 10 nM,100 to 1000 nM,100 to 1000 nM,≤ 10 nM,≤ 10 nM,100 to 1000 nM,> 1000 nM,"CNC(=O)c1coc(-c2cnc3[nH]ccc3c2N[C@@H]2CC[C@H](C)N(C(=O)CC#N)C2)n1 [Example 30, 2-(4-(((3R,6S)-1-(2-cyanoacetyl)-6-methylpiperidin-3-yl)amino)-1H-pyrrolo[2,3-b]pyridin-5-yl)-N-methyloxazole-4-carboxamide]"
≤ 10 nM,100 to 1000 nM,≤ 100 nM,≤ 10 nM,≤ 10 nM,≤ 10 nM,100 to 1000 nM,"CCOC(=O)c1cnc(-c2cnc3[nH]ccc3c2N[C@@H]2CCCN(C(=O)CC#N)C2)s1 [Example 42, ethyl (R)-2-(4-((1-(2-cyanoacetyl)piperidin-3-yl)amino)-1H-pyrrolo[2,3-b]pyridin-5-yl)thiazole-5-carboxylate]"
≤ 10 nM,≤ 100 nM,≤ 100 nM,≤ 10 nM,≤ 10 nM,≤ 10 nM,≤ 100 nM,"C[C@H]1C[C@@H](Nc2c(-c3ncco3)cnc3[nH]ccc23)CN(C(=O)CC#N)C1 (single isomer, unassigned) [Example 10]"

# Source: US11420966B2 (ACLARIS THERAPEUTICS, INC., priority 2019, dated 2022)
